Here are results for 14 molecules from ChEMBL document CHEMBL4715871, “4-Acyl Pyrroles as Dual BET-BRD7/9 Bromodomain Inhibitors Address BETi Insensitive Human Cancer Cell Lines” (J Med Chem, 2020).

Activity calls are given as the source filed them. The calls are words filed in the database; no cut-off is given here.

The target of assay [1] is T1, Bromodomain-containing protein 9 (Homo sapiens, UniProt Q9H8M2).
T1 sequence (Q9H8M2 whole entry): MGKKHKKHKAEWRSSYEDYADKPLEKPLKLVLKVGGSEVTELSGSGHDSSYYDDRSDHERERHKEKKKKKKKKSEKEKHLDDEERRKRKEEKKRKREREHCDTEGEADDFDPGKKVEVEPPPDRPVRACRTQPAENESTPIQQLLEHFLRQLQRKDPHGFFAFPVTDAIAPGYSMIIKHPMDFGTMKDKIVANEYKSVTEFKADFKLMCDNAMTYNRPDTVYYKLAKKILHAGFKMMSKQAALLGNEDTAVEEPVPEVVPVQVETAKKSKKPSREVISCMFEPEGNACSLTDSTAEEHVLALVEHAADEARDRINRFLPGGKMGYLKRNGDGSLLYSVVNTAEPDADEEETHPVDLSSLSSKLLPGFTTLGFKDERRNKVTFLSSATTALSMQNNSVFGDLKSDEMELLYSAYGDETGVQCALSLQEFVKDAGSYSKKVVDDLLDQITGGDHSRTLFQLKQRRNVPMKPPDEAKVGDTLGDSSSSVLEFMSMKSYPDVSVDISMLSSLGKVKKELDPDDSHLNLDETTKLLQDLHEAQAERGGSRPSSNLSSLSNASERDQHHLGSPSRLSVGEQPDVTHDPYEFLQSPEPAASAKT
The assay can be described thus: Binding affinity to human partial length BRD9 (R130 to V259 residues) by bromoKdELECT Discover assay.

In another assay the test system is MCF7. The assay can be described thus: Growth inhibition of human MCF7 cells after 72 hrs by CellTiter 96S AQeous non-radioactive cell proliferation assay. It counts as functional.
Another assay deals with HL-60. Briefly: Growth inhibition of human HL60 cells after 72 hrs by CellTiter 96S AQeous non-radioactive cell proliferation assay. It counts as functional.
Assay [2] relates to SK-MEL-5. The assay can be described thus: Growth inhibition of human SK-MEL-5 cells after 72 hrs by CellTiter 96S AQeous non-radioactive cell proliferation assay. In kind it is functional.
Assay [3] concerns the target T2, Bromodomain-containing protein 4 (Homo sapiens, UniProt O60885). Briefly: Binding affinity to BRD4 BD1 (unknown origin) at 25 degree C by ITC analysis. (In general: ITC needs no label: the signal is the heat of the interaction.)
For assay [4], the target named is T2, Bromodomain-containing protein 4. Briefly: Binding affinity to human BRD4 BD1 (N44 to E168 aa residues) at 10 uM by bromoKdELECT Discover assay.
In the next assay the test system is NCI-H522. Briefly: Growth inhibition of human NCI-H522 cells after 72 hrs by CellTiter 96S AQeous non-radioactive cell proliferation assay. In kind it is functional.
For another assay, the system named is SNB-75. Briefly: Growth inhibition of human SNB-75 cells after 72 hrs by CellTiter 96S AQeous non-radioactive cell proliferation assay. It counts as functional.
The subject of assay [5] is SK-MEL-5. Briefly: Cytotoxicity against human SK-MEL-5 cells after 72 hrs by CellTiter 96S AQeous non-radioactive cell proliferation assay. It counts as functional. The settings on record: read-out: LC50 (the source's name).
Assay [6] is described as follows: Cytotoxicity against human A498 cells after 72 hrs by CellTiter 96S AQeous non-radioactive cell proliferation assay. The conditions noted are these: read-out: LC50 (the source's name). In kind it is functional.
In another assay the test system is LOX IMVI. Briefly: Cytotoxicity against human LOX-IMVI cells after 72 hrs by CellTiter 96S AQeous non-radioactive cell proliferation assay. It counts as functional. The conditions noted are these: read-out: LC50 (the source's name).
The subject of another assay is UACC-62. Briefly: Growth inhibition of human UACC-62 cells after 72 hrs by CellTiter 96S AQeous non-radioactive cell proliferation assay. It counts as functional.
The species named for assay [7] is Homo sapiens. The assay can be described thus: Selectivity index, ratio of Kd for BRD7 (unknown origin) to BRD4 BD1 (unknown origin) by bromoKdELECT Discover assay.
For assay [8], the species on record is Homo sapiens. Briefly: Selectivity index, ratio of Kd for BRD9 (unknown origin) to BRD4 BD1 (unknown origin) by bromoKdELECT Discover assay.
The species named for assay [9] is Homo sapiens. Briefly: Selectivity index, ratio of Kd for BRPF1B (unknown origin) to BRD4 BD1 (unknown origin) by bromoKdELECT Discover assay.
The target of assay [10] is T2, Bromodomain-containing protein 4. The assay can be described thus: Binding affinity to BRD4 BD1 (unknown origin) at 37 degree C by ITC analysis.
Assay [11] has the same target. Briefly: Binding affinity to BRD4 BD1 (unknown origin) at 15 degree C by ITC analysis.
For assay [12] the target is unchanged. The assay can be described thus: Binding affinity to human BRD4 BD1 (N44 to E168 aa residues) by bromoKdELECT Discover assay.

As for `CCC(=O)N1CCOc2c(cc(-c3ccc(OC)c(OC)c3)cc2OC[C@H]2CCCN(C)C2)C1`, in [1], the dissociation constant Kd entry is recorded as “Not Active”. In addition, the GI50 is greater than 50 µM in the assay with MCF7 (Homo sapiens, MCF7); greater than 50 µM with HL-60 (Homo sapiens, HL-60); greater than 50 µM in the assay with SK-MEL-5 [2] (Homo sapiens, SK-MEL-5).

As to `CCN(CC)S(=O)(=O)c1ccc(OC)c(NC(=O)c2[nH]c(C)c3c2CCCCC3=O)c1`, in assay [3], the Kd turned out to be 0.14 µM. Moreover, the 50% growth inhibitory concentration (GI50) is 6.84 µM with MCF7 (Homo sapiens, MCF7); 1.36 µM in the assay on HL-60 (Homo sapiens, HL-60); 16.3 µM in the assay on SK-MEL-5 [2] (Homo sapiens, SK-MEL-5).

Take `COc1ccc(S(=O)(=O)N2CCN(C)CC2)cc1NC(=O)c1[nH]c(C)c2c1CCCCC2=O`: the equilibrium dissociation constant (Kd) in [3] amounted to 0.42 µM. Further, the GI50 in the assay on MCF7 (Homo sapiens, MCF7) is greater than 25 µM; in the assay on HL-60 (Homo sapiens, HL-60), 2.08 µM; in the assay with SK-MEL-5 [2] (Homo sapiens, SK-MEL-5), greater than 20 µM.

With `COc1ccc(S(=O)(=O)N2CC3(COC3)C2)cc1NC(=O)c1[nH]c(C)c2c1CCCCC2=O`, in assay [3], the affinity, expressed as Kd, was 0.26 µM. Also, the GI50 came out at 5.76 µM in the assay on MCF7 (Homo sapiens, MCF7); 0.821 µM in the assay with HL-60 (Homo sapiens, HL-60); 20.8 µM with SK-MEL-5 [2] (Homo sapiens, SK-MEL-5).

For the molecule `COc1ccc(S(=O)(=O)N2CCCCC2)cc1NC(=O)c1c2c(c(C)n1C)C(=O)CCCC2`, the GI50 is greater than 10 µM with MCF7 (Homo sapiens, MCF7); greater than 10 µM in the assay with HL-60 (Homo sapiens, HL-60); greater than 10 µM with SK-MEL-5 [2] (Homo sapiens, SK-MEL-5). In addition, the result in assay [4] was inactive.

As for `COc1ccc(S(=O)(=O)N2CCCCC2)cc1NC(=O)c1[nH]c(C)c2c1CCCCC2=O`, the GI50 was determined as 0.372 µM with NCI-H522; 0.141 µM in the assay with SNB-75; 4.06 µM in the assay with MCF7 (Homo sapiens, MCF7); 0.491 µM in the assay on HL-60 (Homo sapiens, HL-60); 0.355 µM in the assay with UACC-62; 6.79 µM with SK-MEL-5 [2] (Homo sapiens, SK-MEL-5). In [3], the dissociation constant Kd worked out at 0.05 µM. Also, the CC50 in the assay on SK-MEL-5 [5] amounted to 12.2 µM; in [6], 19.7 µM; in the assay on LOX IMVI, 8.17 µM.

`COc1ccc(S(=O)(=O)N2CCOCC2)cc1NC(=O)c1[nH]c(C)c2c1CCCCC2=O` had a Kd in [3] of 0.08 µM. For the same molecule, the Ratio in the assay listed under Homo sapiens [7] came to 1.4; in the assay listed under Homo sapiens [8], 1.1; in the assay listed under Homo sapiens [9], 8.7. Besides, the GI50 with MCF7 (Homo sapiens, MCF7) worked out at 7.67 µM; in the assay with HL-60 (Homo sapiens, HL-60) it was 0.17 µM; in the assay on SK-MEL-5 [2] (Homo sapiens, SK-MEL-5), 6.8 µM.

On to `Cc1sc2c(c1C)C(c1ccc(Cl)cc1)=N[C@@H](CC(=O)OC(C)(C)C)c1nnc(C)n1-2`, for which the GI50 in the assay on MCF7 was greater than 50 µM; with HL-60, 0.021 µM; in the assay on SK-MEL-5 [2], greater than 40 µM.

For `CCN(CC)S(=O)(=O)c1ccc(O)c(NC(=O)c2[nH]c(C)c3c2CCCCC3=O)c1`, the figures for the equilibrium dissociation constant (Kd) in assay [3], in assay [10] and in assay [11] were 0.07 µM, 0.17 µM and less than 0.01 µM, respectively. Further, the concentration for 50% growth inhibition (GI50) was greater than 40 µM with MCF7 (Homo sapiens, MCF7); greater than 40 µM in the assay with HL-60 (Homo sapiens, HL-60); greater than 80 µM with SK-MEL-5 [2] (Homo sapiens, SK-MEL-5).

Regarding `COc1ccc(S(=O)(=O)N2CCCCCC2)cc1NC(=O)c1[nH]c(C)c2c1CCCCC2=O`, in assay [3], binding was put at a Kd of 0.18 µM. Also, the 50% growth inhibitory concentration (GI50) was 3 µM with MCF7 (Homo sapiens, MCF7); 0.565 µM with HL-60 (Homo sapiens, HL-60); 6.85 µM with SK-MEL-5 [2] (Homo sapiens, SK-MEL-5).

Regarding `CCc1c(C(=O)NCc2c(O)ccc3cccc(O)c23)[nH]c(C)c1C(C)=O`, the dissociation constant (Kd) in assay [12] is greater than 4 µM; in [1] (read-out: Kd) it was 2.9 µM. The GI50 amounted to 4.2 µM with MCF7 (Homo sapiens, MCF7); 1.3 µM in the assay on HL-60 (Homo sapiens, HL-60); 4.2 µM in the assay with SK-MEL-5 [2] (Homo sapiens, SK-MEL-5).

For `CC(=O)c1cc(-c2cc(C(=O)NC3CC3)ccc2C)c2ncccn12`, the dissociation constant (Kd) result in assay [1] is “Not Active”. Besides, the concentration for 50% growth inhibition (GI50) turned out to be 4.49 µM in the assay on MCF7 (Homo sapiens, MCF7); 1.33 µM in the assay on HL-60 (Homo sapiens, HL-60); 2.77 µM in the assay with SK-MEL-5 [2] (Homo sapiens, SK-MEL-5).

Consider `CCc1c(C(=O)Nc2cc(S(=O)(=O)N(CC)CC)ccc2O)[nH]c(C)c1C(C)=O`, for which the GI50 in the assay with HL-60 (Homo sapiens, HL-60) was 17 µM.

For the molecule `Cc1cc(=O)n(C)c2cc(N3C(=O)CC[C@H](NS(=O)(=O)CC(C)C)[C@H]3c3ccc(Cl)cc3)ccc12`, the concentration for 50% growth inhibition (GI50) in the assay with HL-60 (Homo sapiens, HL-60) was 5.03 µM.

In general, Kd refers to the equilibrium constant for the complex coming apart. The GI50 is the concentration at which growth is held to half of that of the control.
